{"source": "paper PMC9448861", "about": "(Frontiers in Pharmacology, 2022)", "assay_type_in_all_cases": "in vivo, C57BL/6J mice", "key": {"[1]": {"assay": "Pharmacokinetics of ketamine and its metabolite hydroxynorketamine in mouse serum, hippocampus and frontal cortex (noncompartmental analysis, LC-MS/MS)", "settings": "for AUC0-∞ / Cmax / MRT / t0.5λz / tmax / λz: ketamine 10 mg/kg i.p."}, "[2]": {"test_system": "mice subjected to CRS and CRS + ZnD", "assay": "Sucrose preference test (SPT) in mice subjected to CRS or CRS + ZnD", "experimental": "(§1) All the compounds/drugs used in the study were obtained commercially, except for hyperforin (sodium salt), which was received as a gift from Dr. Wilmar Schwabe GmbH and Co (Karlsruhe, Germany). […] The control group received only 0.9% NaCl.\n(§2) One week after acclimation, the mice were subjected to either a zinc-adequate feed (ZnA, 50 mg/kg) or zinc-deficient/low-Zn feed (ZnD, 3 mg/kg). Beginning from the second week, some ZnD mice were additionally subjected to 3 weeks of CRS. At the beginning of the 5th week, the mice were subjected to their appropriate treatment schedules or behavioral tests (see schemes in the figures).\n(§3) CRS was performed in accordance with the procedures of [Ding et al. (2016]) with modifications. Mice from the stress groups were restrained in well-ventilated tubes with caps and holes for breathing (in a separate room from the control groups) for 3 h/day over 3 weeks. After each restraint period, the mice were transferred to housing cages. The control mice were housed at 6 mice per cage in an enriched environment and were handled every third day.\nSeven days before the tests, the control and stressed mice were singly housed. The tests were carried out as follows. Two bottles (water and 1% sucrose solution) were placed in each cage 63 h before the test. Twenty-four hours later, the bottles were switched from right to left. Fifteen hours before the tests, the animals were deprived of food, water, and sucrose. The tests lasted 2 h, and sucrose preference was calculated as a percentage of the volume of sucrose intake over the total volume of fluid intake (water and sucrose solution). The SPT was performed during the light phase."}, "[3]": {"test_system": "Zn levels in the Hp and FC", "assay": "Analysis of zinc (F-AAS) in the Hp and FC", "settings": "CRS + ZnD mice; three doses", "experimental": "as §1\nThe samples were mineralized before the experiments. Briefly, three independent test portions of 0.5 g each were weighed from each sample and transferred to Teflon vessels. Then, 2 mL of 30% H2O2 and 6 mL of 65% HNO3 (V) were added, and the mixture was subjected to wet mineralization in a closed system in a Magnum II mineralizer (ERTEC). Mineralization was carried out for 75 min with three cycles of magnetron operation, where the first 30 min was at 60% power, next 15 min was at 80% power, and the remaining 30 min was at 100% power. The mineralized solution thus obtained was heated on a hot plate at 120 °C for 60 min to remove the excess reagents. The samples were then quantitatively transferred to 10 mL flasks and used to determine the zinc content via the F–AAS method (adsorption and emission technique). An atomic absorption spectrometer (iCE 3500, Thermo Scientific, UK) was used to measure the Zn content; each sample was analyzed independently thrice, and the obtained results are presented as mean value ± standard error of mean (SEM)."}, "[4]": {"test_system": "mice subjected to CRS and CRS + ZnD", "assay": "Tail suspension test (TST) in mice subjected to CRS or CRS + ZnD", "settings": "three doses, 72 h after the last treatment", "experimental": "as §1, §2, §3\nThe TST was performed as described in a previous work ([Pochwat et al., 2018]). Briefly, each mouse was suspended individually by the tail using adhesive tape (2 cm from the tail tip) affixed to a solid flat surface, and immobility times were measured for 6 min. […]"}}}
{"compound": "N[C@@]1(c2ccccc2Cl)CCC[C@@H](O)C1=O", "note": "[Hydroxynorketamine, (2R,6R;2S,6S)-hydroxynorketamine]", "values": [{"measurement": "AUC0-∞", "setting": "[1]; frontal cortex, CRS + ZnD mice", "value": 148.57, "unit": "µg·min/g"}, {"measurement": "Cmax", "setting": "[1]; frontal cortex, CRS + ZnD mice", "value": 1838.33, "unit": "ng/g"}, {"measurement": "MRT", "setting": "[1]; frontal cortex, CRS + ZnD mice", "value": 1.137, "unit": "h"}, {"measurement": "t0.5λz", "setting": "[1]; frontal cortex, CRS + ZnD mice", "value": 52.49, "unit": "min"}, {"measurement": "tmax", "setting": "[1]; frontal cortex, CRS + ZnD mice", "value": 0.167, "unit": "h"}, {"measurement": "λz", "setting": "[1]; frontal cortex, CRS + ZnD mice", "value": 0.013, "unit": "min⁻¹"}, {"measurement": "AUC0-∞", "setting": "[1]; frontal cortex, CRS mice", "value": 154.18, "unit": "µg·min/g"}, {"measurement": "Cmax", "setting": "[1]; frontal cortex, CRS mice", "value": 2020.00, "unit": "ng/g"}, {"measurement": "MRT", "setting": "[1]; frontal cortex, CRS mice", "value": 1.212, "unit": "h"}, {"measurement": "t0.5λz", "setting": "[1]; frontal cortex, CRS mice", "value": 59.38, "unit": "min"}, {"measurement": "tmax", "setting": "[1]; frontal cortex, CRS mice", "value": 0.167, "unit": "h"}, {"measurement": "λz", "setting": "[1]; frontal cortex, CRS mice", "value": 0.012, "unit": "min⁻¹"}, {"measurement": "AUC0-∞", "setting": "[1]; frontal cortex, Control mice", "value": 171.66, "unit": "µg·min/g"}, {"measurement": "Cmax", "setting": "[1]; frontal cortex, Control mice", "value": 1920.83, "unit": "ng/g"}, {"measurement": "MRT", "setting": "[1]; frontal cortex, Control mice", "value": 1.245, "unit": "h"}, {"measurement": "t0.5λz", "setting": "[1]; frontal cortex, Control mice", "value": 50.01, "unit": "min"}, {"measurement": "tmax", "setting": "[1]; frontal cortex, Control mice", "value": 0.167, "unit": "h"}, {"measurement": "λz", "setting": "[1]; frontal cortex, Control mice", "value": 0.014, "unit": "min⁻¹"}, {"measurement": "AUC0-∞", "setting": "[1]; hippocampus, CRS + ZnD mice", "value": 114.29, "unit": "µg·min/g"}, {"measurement": "Cmax", "setting": "[1]; hippocampus, CRS + ZnD mice", "value": 1540.00, "unit": "ng/g"}, {"measurement": "MRT", "setting": "[1]; hippocampus, CRS + ZnD mice", "value": 1.172, "unit": "h"}, {"measurement": "t0.5λz", "setting": "[1]; hippocampus, CRS + ZnD mice", "value": 54.06, "unit": "min"}, {"measurement": "tmax", "setting": "[1]; hippocampus, CRS + ZnD mice", "value": 0.167, "unit": "h"}, {"measurement": "λz", "setting": "[1]; hippocampus, CRS + ZnD mice", "value": 0.013, "unit": "min⁻¹"}, {"measurement": "AUC0-∞", "setting": "[1]; hippocampus, CRS mice", "value": 121.64, "unit": "µg·min/g"}, {"measurement": "Cmax", "setting": "[1]; hippocampus, CRS mice", "value": 1536.83, "unit": "ng/g"}, {"measurement": "MRT", "setting": "[1]; hippocampus, CRS mice", "value": 1.213, "unit": "h"}, {"measurement": "t0.5λz", "setting": "[1]; hippocampus, CRS mice", "value": 54.52, "unit": "min"}, {"measurement": "tmax", "setting": "[1]; hippocampus, CRS mice", "value": 0.167, "unit": "h"}, {"measurement": "λz", "setting": "[1]; hippocampus, CRS mice", "value": 0.013, "unit": "min⁻¹"}, {"measurement": "AUC0-∞", "setting": "[1]; hippocampus, Control mice", "value": 137.36, "unit": "µg·min/g"}, {"measurement": "Cmax", "setting": "[1]; hippocampus, Control mice", "value": 1591.33, "unit": "ng/g"}, {"measurement": "MRT", "setting": "[1]; hippocampus, Control mice", "value": 1.349, "unit": "h"}, {"measurement": "t0.5λz", "setting": "[1]; hippocampus, Control mice", "value": 58.88, "unit": "min"}, {"measurement": "tmax", "setting": "[1]; hippocampus, Control mice", "value": 0.167, "unit": "h"}, {"measurement": "λz", "setting": "[1]; hippocampus, Control mice", "value": 0.012, "unit": "min⁻¹"}, {"measurement": "tissue-to-serum ratios for the metabolite as share of the values observed for the parent compound", "setting": "[1]; in the FC", "value": "about 80%"}, {"measurement": "tissue-to-serum ratios for the metabolite as share of the values observed for the parent compound", "setting": "[1]; in the serum and Hp", "value": "about 40%"}, {"measurement": "Cmax", "setting": "[1]; serum, CRS + ZnD mice", "value": 1726.00, "unit": "ng/mL"}, {"measurement": "MRT", "setting": "[1]; serum, CRS + ZnD mice", "value": 1.22, "unit": "h"}, {"measurement": "t0.5λz", "setting": "[1]; serum, CRS + ZnD mice", "value": 56.28, "unit": "min"}, {"measurement": "tmax", "setting": "[1]; serum, CRS + ZnD mice", "value": 0.167, "unit": "h"}, {"measurement": "λz", "setting": "[1]; serum, CRS + ZnD mice", "value": 0.013, "unit": "min⁻¹"}, {"measurement": "Cmax", "setting": "[1]; serum, CRS mice", "value": 1269.00, "unit": "ng/mL"}, {"measurement": "MRT", "setting": "[1]; serum, CRS mice", "value": 1.351, "unit": "h"}, {"measurement": "t0.5λz", "setting": "[1]; serum, CRS mice", "value": 59.11, "unit": "min"}, {"measurement": "tmax", "setting": "[1]; serum, CRS mice", "value": 0.167, "unit": "h"}, {"measurement": "λz", "setting": "[1]; serum, CRS mice", "value": 0.012, "unit": "min⁻¹"}, {"measurement": "Cmax", "setting": "[1]; serum, Control mice", "value": 1152.71, "unit": "ng/mL"}, {"measurement": "MRT", "setting": "[1]; serum, Control mice", "value": 1.462, "unit": "h"}, {"measurement": "t0.5λz", "setting": "[1]; serum, Control mice", "value": 62.33, "unit": "min"}, {"measurement": "tmax", "setting": "[1]; serum, Control mice", "value": 1, "unit": "h"}, {"measurement": "λz", "setting": "[1]; serum, Control mice", "value": 0.011, "unit": "min⁻¹"}, {"measurement": "metabolite-to-parent Cmax ratio", "setting": "[1]; serum, control and study groups", "value": "~1"}]}
{"compound": "CN(C)CCCN1c2ccccc2CCc2ccccc21", "note": "[IMI, imipramine]", "values": [{"measurement": "sucrose preference in the SPT", "setting": "[2]; CRS + ZnD mice, 10 mg/kg chronically (14 days), SPT 24 h after the last treatment", "value": "the same was not observed"}, {"measurement": "sucrose preference in the SPT", "setting": "[2]; CRS mice, 10 mg/kg chronically (14 days), SPT 24 h after the last treatment", "value": "restored sucrose preference"}]}
{"compound": "C[C@@H](CN1CCC(Cc2ccccc2)CC1)[C@@H](O)c1ccc(O)cc1", "note": "[Ro, Ro 25–6981]", "values": [{"measurement": "sucrose preference in the SPT", "setting": "[2]; CRS + ZnD mice, three doses (ketamine 10 mg/kg, Ro 10 mg/kg, Hyp 2.5 mg/kg + Lan 10 mg/kg), 24 h after the last treatment", "value": "failed to restore sucrose preference"}, {"measurement": "sucrose preference in the SPT", "setting": "[2]; CRS mice, three doses (ketamine 10 mg/kg, Ro 10 mg/kg, Hyp 2.5 mg/kg + Lan 10 mg/kg), 24 h after the last treatment", "value": "did not show any statistically significant antidepressant-like activities"}, {"measurement": "Zn levels in the Hp and FC", "setting": "[3]", "value": "reduced the Zn levels"}, {"measurement": "immobility time in the TST", "setting": "[4]", "value": "ineffective"}]}
